US10968232B2 (Merck Sharp & Dohme Corp., priority 2016, dated 2021)
pEC50: −log10 of the molar value.

Each compound was assayed against T1, human GPR40 (Homo sapiens, UniProt O14842) (assay: Inositol Phosphate Turnover (IP1) Assay). Conditions: HEK cells stably expressing human GPR40; CisBio IP-One kit; 60 minutes at 37 degrees; read-out: Human IP1 EC50.
T1 construct: expressed in transfected cells
Assay type: cell-based
Protocol: Human GPR40 stable cell-lines were generated in HEK cells. The expression plasmids were transfected using lipofectamine (Life Technologies) following manufacturer's instructions. Stable cell-lines were generated following drug selection and single cell cloning. The assay was performed in 384-well format. HEK cells stably expressing human GPR40 were plated at 7500 cells per well in growth medium (DMEM/10% fetal calf serum). Cell plates were then incubated 16 hours at 37 degrees in a 5% CO2 incubator. Measurement of Inositol Phosphate Turnover (IP1) was performed using the CisBio IP-One kit (Part number 62IPAPEB). After the 16 hour incubation, the growth media was removed by centrifugation using the BlueWasher (AusWasher GUI Ver. v1.0.1.8) Protocol #21-“Light Dry” and 10 ul of stimulation buffer (prepared as described in the kit) was added to each well. In a separate plate, compounds were diluted in DMSO (200-fold over the final concentration in the assay well) and 50 nl was acoustically transferred to the appropriate well in the assay cell plate. The plates were then incubated for 60 minutes at 37 degrees in a 5% CO2 incubator. 10 ul of detection buffer (also prepared as described in the IP-One kit) was added to each well and the plates were incubated at room temperature for 60 minutes in the dark. The plates were then read in a Perkin Elmer EnVision or equivalent reader able to measure FRET. […] Data was normalized to % activity using a reference compound and EC50s determined using a standard 4-parameter fit.

T1 sequence (O14842 whole entry): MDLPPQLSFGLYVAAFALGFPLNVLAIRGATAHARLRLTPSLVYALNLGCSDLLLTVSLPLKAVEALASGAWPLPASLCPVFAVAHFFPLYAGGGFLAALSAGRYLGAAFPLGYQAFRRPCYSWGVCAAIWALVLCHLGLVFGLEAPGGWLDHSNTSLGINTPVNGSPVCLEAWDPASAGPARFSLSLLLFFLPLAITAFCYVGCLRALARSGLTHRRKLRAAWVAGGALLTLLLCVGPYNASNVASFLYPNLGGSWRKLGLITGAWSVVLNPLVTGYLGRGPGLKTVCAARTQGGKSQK

Row | SMILES | pEC50
1 | CCc1[nH]c(C(=O)O)cc1-c1ccc(OC(F)(F)F)c(C(C)N2CCC3(CCc4ccc([C@H](C5CC5)[C@H](C)C(=O)O)cc4O3)CC2)c1 (single isomer, unassigned) [Example 120, 4-(3-((S or R)-1-(7-((1R,2S)-2-carboxy-1-cyclopropylpropyl)spiro[chro-man-2,4′-piperidin]-1′-yl)ethyl)-4-(trifluoro-methoxy)phenyl)-5-ethyl-1H-pyrrole-2-carboxylic acid] | 6.30
2 | C[C@H](C(=O)O)[C@H](c1ccc2c(c1)OC1(CC2)CCN(c2ccc3nc(C(F)(F)F)cn3n2)CC1)C1CC1 [Example 71, (2S,3R)-3-cyclopropyl-2-methyl-3-(1′-(2-(trifluoromethyl)imidazo[1,2-b]-pyridazin-6-yl)spiro[chroman-2,4′-piperidin]-7-yl)propanoic Acid] | 6.26
3 | COc1ccc(C(F)(F)F)c(C(C)N2CCC3(CCc4ccc([C@H](C5CC5)[C@H](C)C(=O)O)cc4O3)CC2)n1 (single isomer, unassigned) [Example 104, sodium (2S,3R)-3-cyclopropyl-3-(1′-((R or S)-1-(6-methoxy-3-(trifluoromethyl)pyridin-2-yl)ethyl)spiro[chroman-2,4′-piperidin]-7-yl)-2-methylpropanoate] | 7.22
4 | C[C@H](C(=O)O)[C@H](c1ccc2c(c1)OC1(CC2)[C@@H]2CC[C@H]1CN([C@@H](C)c1cc(F)ccc1C(F)(F)F)C2)C1CC1 (single isomer, unassigned) [Example 82] | 6.60
5 | C[C@H](C(=O)O)[C@H](c1ccc2c(c1)OC1(CC2)[C@@H]2CC[C@H]1CN([C@H](C)c1cc(C(F)(F)F)ccc1C(F)(F)F)C2)C1CC1 (single isomer, unassigned) [Example 81] | 6.99
6 | COc1ccc(C(F)(F)F)c(C(C)N2CCC3(CCc4ccc([C@H](C5CC5)[C@H](C)C(=O)O)cc4O3)CC2)n1 (single isomer, unassigned) [Example 105, sodium (2S,3R)-3-cyclo-propyl-3-(1′-((S or R)-1-(6-methoxy-3-(trifluoromethyl)pyridin-2-yl)ethyl)-spiro-[chroman-2,4′-piperidin]-7-yl)-2-methylpropanoate] | 6.90
7 | CC(c1cc(F)cc(F)c1Cl)N1CCC2(CCc3ccc([C@H](C4CC4)[C@H](C)C(=O)O)cc3O2)CC1 (single isomer, unassigned) [Example 18] | 7.34
8 | C[C@H](C(=O)O)[C@H](c1ccc2c(c1)OC1(CC2)[C@@H]2CC[C@H]1CN([C@H](C)c1cc(C(F)(F)F)ccc1C(F)(F)F)C2)C1CC1 (single isomer, unassigned) [Example 83] | 6.10
9 | CC(c1cc(F)cc(F)c1Cl)N1CCC2(CCc3ccc([C@H](C4CC4)[C@H](C)C(=O)O)cc3O2)CC1 (single isomer, unassigned) [Example 19] | 7.43
10 | C[C@H](C(=O)O)[C@H](c1ccc2c(c1)OC1(CC2)CC(NCc2cc(C(F)(F)F)ccc2C(F)(F)F)C1)C1CC1 (single isomer, unassigned) [Example 95] | 7.31

Next, values leading:

Row | pEC50 | SMILES
11 | 7.61 | C[C@H](NC1CC2(CCc3ccc([C@H](C4CC4)[C@H](C)C(=O)O)cc3O2)C1)c1cc(C(F)(F)F)ccc1C(F)(F)F (single isomer, unassigned) [Example 92]
12 | 8.85 | CC(c1cc(C2CC2)ccc1C(F)(F)F)N1CCC2(CCc3ccc([C@H](C4CC4)[C@H](C)C(=O)O)cc3O2)CC1 (single isomer, unassigned) [Example 57, (2S,3R)-3-cyclopropyl-3-(1′-((R or S)-1-(5-cyclopropyl-2-(trifluoromethyl)phenyl)-ethyl)-spiro[chroman-2,4′-piperidin]-7-yl)-2-methylpropanoic Acid]
13 | 8.67 | CC[C@@H](c1cc(C(F)(F)F)ccc1C(F)(F)F)N1CCC2(CCc3ccc([C@H](C4CC4)[C@H](C)C(=O)O)cc3O2)CC1 [Example 7, sodium (2S,3R)-3-(1′-((S)-1-(2,5-bis(trifluoro-methyl)phenyl)propyl)-spiro[chroman-2,4′-piperidin]-7-yl)-3-cyclo-propyl-2-methyl-propanoic acid]
14 | 7.82 | C[C@H](C(=O)O)[C@H](c1ccc2c(c1)OC1(CC2)CC(Nc2ncccc2C(F)(F)F)C1)C1CC1 (single isomer, unassigned) [Example 87]
15 | 8.48 | C[C@H](C(=O)O)[C@H](c1ccc2c(c1)OC1(CC2)CCN(c2cc(C(F)(F)F)ccc2C(F)(F)F)CC1)C1CC1 [Example 59, (2S,3R)-3-(1′-(2,5-bis(trifluoromethyl)phenyl)spiro[chroman-2,4′-piperidin]-7-yl)-3-cyclopropyl-2-methylpropanoic Acid]
16 | 8.53 | C[C@H](C(=O)O)[C@H](c1ccc2c(c1)OC1(CC2)CCC(N(C)c2ncccc2C(F)(F)F)CC1)C1CC1 (single isomer, unassigned) [Example 63]
17 | 7.70 | CC(c1cc(C2CC2)ccc1OC(F)(F)F)N1CCC2(CCc3ccc([C@H](C4CC4)[C@H](C)C(=O)O)cc3O2)CC1 (stereo partly drawn) [Example 111, (2S,3R)-3-cyclopropyl-3-(1′-(1-(5-cyclopropyl-2-(trifluoromethoxy)phenyl)ethyl)spiro[chroman-2,4′-piperidin]-7-yl)-2-methylpropanoic Acid]
18 | 8.48 | CC(c1cc(Cl)ccc1OC(F)(F)F)N1CCC2(CCc3ccc([C@H](C4CC4)[C@H](C)C(=O)O)cc3O2)CC1 (stereo partly drawn) [Example 133, Sodium (2S,3R)-3-(1′-(1-(5-chloro-2-(trifluoromethoxy)phenyl)ethyl)spiro[chromane-2,4′-piperidin]-7-yl)-3-cyclopropyl-2-methylpropanoate]
19 | 8.61 | CC(c1cc(Cl)cc(Cl)c1OC(F)F)N1CCC2(CCc3ccc([C@H](C4CC4)[C@H](C)C(=O)O)cc3O2)CC1 (single isomer, unassigned) [Example 79, (2S,3R)-3-cyclopropyl-3-(1′-((R or S)-1-(3,5-dichloro-2-(difluoromethoxy)phenyl)-ethyl)spiro[chroman-2,4′-piperidin]-7-yl)-2-methylpropanoic Acid]
20 | 8.37 | C[C@H](C(=O)O)[C@H](c1ccc2c(c1)OC1(CC2)CCC(N(C)c2cc(C(F)(F)F)ccc2C(F)(F)F)CC1)C1CC1 (stereo partly drawn) [Example 66, (2S,3R)-3-(4′-((2,5-bis (trifluoromethyl)phenyl) (methyl)amino)spiro [chroman-2,1′-cyclohexan]-7-yl)-3-cyclopropyl-2-methylpropanoic acid]
21 | 8.76 | C[C@H](C(=O)O)[C@H](c1ccc2c(c1)OC1(CC2)CCC(N(C)c2cc(C(F)(F)F)ccc2C(F)(F)F)CC1)C1CC1 (stereo partly drawn) [Example 70, (2S,3R)-3-(4′-((2,5-bis(trifluoromethyl)phenyl) (methyl)amino)spiro [chroman-2,1′-cyclohexan]-7-yl)-3-cyclopropyl-2-methylpropanoic acid]
22 | 7.96 | CC(c1cc(C(F)(F)F)ccc1F)N1CCC2(CCc3ccc([C@H](C4CC4)[C@H](C)C(=O)O)cc3O2)CC1 (mixture of isomers) [Example 28, (2S,3R)-3-cyclopropyl-3-(1′-((RS)-1-(2-fluoro-5-(trifluoromethyl)phenyl)ethyl)spiro[chroman-2,4′-piperidin]-7-yl)-2-methylpropanoic acid]
23 | 8.67 | COc1cc(C(C)N2CCC3(CCc4ccc([C@H](C5CC5)[C@H](C)C(=O)O)cc4O3)CC2)c(C(F)(F)F)cn1 (single isomer, unassigned) [Example 107, sodium (2S,3R)-3-cyclo-propyl-3-(1′-((S or R)-1-(2-methoxy-5-(trifluoro-methyl)pyridin-4-yl)ethyl)spiro[chroman-2,4′-piperidin]-7-yl)-2-methylpropanoate]
24 | 8.58 | C[C@H](C(=O)O)[C@H](c1ccc2c(c1)OC1(CCCN(Cc3cc(C(F)(F)F)ccc3C(F)(F)F)CC1)CC2)C1CC1 (single isomer, unassigned) [Example 47, (2S,3R)-3-((R or S)-1-(2,5-bis(trifluoromethyl)benzyl)spiro[azepane-4,2′-chroman]-7′-yl)-3-cyclopropyl-2-methylpropanoic Acid]
25 | 7.85 | C[C@H](C(=O)O)[C@H](c1ccc2c(c1)OC1(CC2)CCN(S(=O)(=O)c2cc(C(F)(F)F)ccc2C(F)(F)F)CC1)C1CC1 [Example 23, (2S,3R)-3-(1′-((2,5-bis(trifluoromethyl)phenyl)sulfonyl)spiro[chroman-2,4′-piperidin]-7-yl)-3-cyclopropyl-2-methylpropanoic Acid]

Same assay, conditions: Human IP1 EC50 (nM), HEK cells stably expressing human GPR40; CisBio IP-One kit; 60 minutes at 37 degrees

Row | EC50 | SMILES
26 | 15.8 nM | CC(c1cc(C(F)(F)F)cc(Cl)c1F)N1CCC2(CCc3ccc([C@H](C4CC4)[C@H](C)C(=O)O)cc3O2)CC1 (single isomer, unassigned) [Example 108, (2S,3R)-3-(1′-((R or S)-1-(3-chloro-2-fluoro-5-(trifluoromethyl)phenyl)ethyl)spiro-[chroman-2,4′-piperidin]-7-yl)-3-cyclopropyl-2-methylpropanoic Acid]
